What is called inhibition is the drop in the measured response relative to a control, in per cent. A high value points to a response far below the control.

Among the data in patent US10040804B2, “Compounds targeting proteins, compositions, methods, and uses thereof” (BioTheryX, Inc., priority 2016, dated 2018) are inhibition, cytotoxicity and fold induction values, retold here.

One assay has as its system TNF-α. Nature of the assay: TNF-α expression in LPS stimulated PBMCs (Meso Scale). The assay is classed as cell-based, human. The following applies: Homo sapiens, PBMC; for inhibition at 10 µM: compound concentration 10 μM. The essentials: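 Thawed primary human PBMCs, 200,000 cells/well in RPMI-1640/10% FBS, pretreated with compound 1 h, then stimulated with 100 ng/mL LPS for 18-24 h. Supernatant TNF-α measured by Meso Scale assay; activity expressed as percentage of LPS-induced level, DMSO as negative control.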

Another assay deals with Molm-13 cells. In words: Molm-13 cell viability (CellTiter-Glo). Type of assay: cell-based. The following applies: Homo sapiens, MOLM-13, read-out: % Inhibition (MOLM-13 Cell Viability); for cytotoxicity at 10 µM: compound concentration 10 μM. Summed up: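 Molm-13 (RPMI-1640, 10% FBS) and H1048 (DMEM:F12, 5% FBS with supplements) plated at 20,000 cells/well, treated with compound or 0.1% DMSO for 3 days at 37° C., 5% CO2. Viability read by CellTiter-Glo luminescence after 10 min.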
Background: In ATP-based viability assays light output follows the ATP content of the culture.

In a further assay the test system is IL-2. In words: anti-CD3-induced IL-2 secretion in PBMCs. The assay is classed as cell-based. The settings on record: Homo sapiens, PBMC, anti-CD3 stimulated PBMCs, 24 h, DMSO = 1.0, read-out: Fold Change IL-2; for fold induction at 10 µM: compound concentration 10 μM. The method, then:
FIGS. 4 and 9D are graphs showing anti-CD3-induced IL-2 secretion in PBMCs. 1 ug/mL anti-CD3 (OKT-3) antibody in PBS were coated onto 96-well plates overnight at 4° C. Approximately 550,000 PBMCs were added to each well, followed by addition of DMSO only, Compound 1-8 at 10 μM (FIG. 4) or Compound 9 at 0.1 μM or 1 μM (FIG. 9D), or 10 μM lenalidomide (rev). Induction was measured after 24 h as fold difference from the DMSO stimulated control.
For the IL-2 analysis, 96 well plates were precoated with 1 ug/mL anti-human CD3 antibody (OKT3, eBioscience Inc.). After washing with PBS, compounds were added to the wells (50 μL/well) followed by PBMCs diluted at 3-4 million cells/mL (150 μL/well). Plates were incubated for 24 h and the supernatants collected for Mesoscale IL-2 analysis.
Compound activity was measured as fold difference from the DMSO control. IL-1-beta activity is shown in FIG. 1; IL-6 activity is shown in FIG. 2; TNF-α activity is shown in FIG. 3; and IL-2 activity is shown in FIG. 4.

A further assay has as its system IL-1β. Nature of the assay: IL-1β expression in LPS stimulated PBMCs (Meso Scale). The following applies: Homo sapiens, PBMC; for inhibition at 10 µM: compound concentration 10 μM. Type of assay: cell-based, human. Summed up:
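Human PBMCs (200,000 cells/well in RPMI-1640/10% FBS) were pretreated with compound for 1 h, then stimulated with 100 ng/mL LPS for 18-24 h. IL-1β in supernatant was measured by Meso Scale assay. Activity is expressed as percentage of LPS-induced level, with DMSO-treated wells as negative control.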

The test system of another assay is IL-6. Nature of the assay: IL-6 expression in LPS stimulated PBMCs (Meso Scale). The assay is classed as cell-based, human. The following applies: Homo sapiens, PBMC, LPS-stimulated PBMCs; for inhibition at 10 µM: compound concentration 10 μM. The essentials:
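Thawed human PBMCs at 200,000 cells/well in RPMI-1640/10% FBS were pretreated with compound or DMSO for 1 h, then stimulated with 100 ng/mL LPS for 18–24 h. Supernatant IL-6 was measured by Meso Scale assay and expressed as % of LPS-induced activity.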

Where a name gives a salt, the structure may show the parent alone.

On to `NCc1scc2c1CN([C@H]1CCCC(=O)NC1=O)C2=O` [Compound 18, (S)-3-(1-(Aminomethyl)-4-oxo-4H-thieno[3,4-c]pyrrol-5(6H)-yl)azepane-2,7-dione 2,2,2-trifluoroacetic Acid Salt], for which the inhibition at 10 µM with TNF-α was 48%; with IL-1β, 36%; in the assay on IL-6, 32%. Further, in the assay on Molm-13 cells, the cytotoxicity at 10 µM was 3%. In the assay with IL-2, the fold induction at 10 µM amounted to 0.9.

As for `O=C1CCC[C@H](N2Cc3c(csc3C(F)F)C2=O)C(=O)N1` [Compound 19, (S)-3-(1-(Difluoromethyl)-4-oxo-4H-thieno[3,4-c]pyrrol-5(6H)-yl)azepane-2,7-dione], the inhibition at 10 µM came out at 59% with TNF-α, 79% in the assay with IL-1β and 78% with IL-6. For the same compound, the cytotoxicity at 10 µM in the assay with Molm-13 cells stood at 29%. In the assay with IL-2, the fold induction at 10 µM amounted to 4.

In the case of `Cc1scc2c1CN([C@H]1CC(=O)NC1=O)C2=O` [Compound 20, (S)-3-(1-Methyl-4-oxo-4H-thieno[3,4-c]pyrrol-5(6H)-yl) pyrrolidine-2,5-dione], the inhibition at 10 µM was determined as 58% in the assay with TNF-α, 50% in the assay with IL-1β and 19% in the assay on IL-6. Further, in the assay with Molm-13 cells, the cytotoxicity at 10 µM is 19%. In addition, the fold induction at 10 µM in the assay on IL-2 stood at 2.2.

With `O=C1CCC(N2Cc3sccc3C2=O)C(=O)N1` (stereo not shown) [Compound 21, 3-(4-Oxo-4H-thieno[2,3-c]pyrrol-5(6H)-yl)piperidine-2,6-dione], the values for the inhibition at 10 µM with TNF-α, in the assay on IL-1β and in the assay with IL-6 were 74%, 74% and 73%, respectively. In addition, the cytotoxicity at 10 µM in the assay on Molm-13 cells came to 16%. Also, in the assay with IL-2, the fold induction at 10 µM is 2.9.

Turning to `O=C1CCC(N2C(=O)c3scc(C4CCCC4)c3C2=O)C(=O)N1` (stereo not shown) [Compound 22, 3-Cyclopentyl-5-(2,6-dioxopiperidin-3-yl)-4H-thieno[2,3-c]pyrrole-4,6(5H)-dione], the figures for the inhibition at 10 µM in the assay with TNF-α, in the assay with IL-1β and in the assay on IL-6 were 26%, 0% and 16%, respectively. The cytotoxicity at 10 µM in the assay on Molm-13 cells is 23%. In addition, the fold induction at 10 µM in the assay with IL-2 was 0.8.

Take `O=C1CCC(N2Cc3c(csc3C(F)F)C2=O)C(=O)N1` (stereo not shown) [Compound 23, 3-(1-(Difluoromethyl)-4-oxo-4H-thieno[3,4-c]pyrrol-5(6H)-yl)piperidine-2,6-dione]: the inhibition at 10 µM was 82% in the assay on TNF-α, 69% in the assay with IL-1β and 45% in the assay with IL-6. The cytotoxicity at 10 µM in the assay on Molm-13 cells came to 34%. Also, in the assay on IL-2, the fold induction at 10 µM was 2.

For `O=C1CCC[C@H](N2Cc3c(C4CCCC4)csc3C2=O)C(=O)N1` [Compound 24, (S)-3-(3-Cyclopentyl-6-oxo-4H-thieno[2,3-c]pyrrol-5(6H)-yl)azepane-2,7-dione], the inhibition at 10 µM in the assay with TNF-α turned out to be 23%; in the assay on IL-1β, 11%; with IL-6, 6%. Also, the cytotoxicity at 10 µM in the assay on Molm-13 cells worked out at 26%. Besides, in the assay on IL-2, the fold induction at 10 µM worked out at 0.7.

Turning to `Cc1sc(Cl)c2c1CN([C@H]1CCCC(=O)NC1=O)C2=O` [Compound 25, (S)-3-(3-Chloro-1-methyl-4-oxo-4H-thieno[3,4-c]pyrrol-5(6H)-yl)azepane-2,7-dione], the inhibition at 10 µM came out at 41% in the assay on TNF-α, 45% with IL-1β and 22% in the assay on IL-6. Further, the cytotoxicity at 10 µM in the assay with Molm-13 cells amounted to 20%. Further, the fold induction at 10 µM in the assay on IL-2 turned out to be 1.3.

Consider `O=C1CCC(N2C(=O)c3cc(C4CCCC4)sc3C2=O)C(=O)N1` (stereo not shown) [Compound 26, 2-Cyclopentyl-5-(2,6-dioxopiperidin-3-yl)-4H-thieno[2,3-c]pyrrole-4,6(5H)-dione], for which the inhibition at 10 µM in the assay with TNF-α came to 31%; with IL-1β it was 2%; in the assay with IL-6, 14%. The cytotoxicity at 10 µM in the assay with Molm-13 cells worked out at 0%. The fold induction at 10 µM in the assay on IL-2 was 0.9.

With `O=C1CCC(N2C(=O)c3csc(C4CCCC4)c3C2=O)C(=O)N1` (stereo not shown) [Compound 27, 1-Cyclopentyl-5-(2,6-dioxopiperidin-3-yl)-4H-thieno[3,4-c]pyrrole-4,6(5H)-dione], the inhibition at 10 µM in the assay on TNF-α was 22%; in the assay with IL-1β, 21%; in the assay on IL-6, 3%. For the same compound, the cytotoxicity at 10 µM in the assay with Molm-13 cells was 0%. Besides, in the assay on IL-2, the fold induction at 10 µM came out at 0.8.

For `Cc1scc2c1CN([C@H]1CCCCNC1=O)C2=O` [Compound 28, (S)-1-Methyl-5-(2-oxoazepan-3-yl)-5,6-dihydro-4H-thieno[3,4-c]pyrrol-4-one], the inhibition at 10 µM turned out to be 0% in the assay with TNF-α, 0% in the assay on IL-1β and 9% in the assay with IL-6. Further, the cytotoxicity at 10 µM with Molm-13 cells worked out at 0%. The fold induction at 10 µM in the assay on IL-2 came to 0.9.

As to `Cc1cnc(Nc2ccc(OCCCNCC(=O)NCc3scc4c3CN([C@H]3CCCC(=O)NC3=O)C4=O)cc2)nc1Nc1cccc(S(=O)(=O)NC(C)(C)C)c1` [Compound 58, (S)-2-((3-(4-((4-((3-(N-(tert-Butyl)sulfamoyl)phenyl)amino)-5-methylpyrimidin-2-yl)amino)phenoxy)propyl)amino)-N-((5-(2,7-dioxoazepan-3-yl)-4-oxo-5,6-dihydro-4H-thieno[3,4-c]pyrrol-1-yl)methyl)acetamide], the figures for the inhibition at 10 µM in the assay with TNF-α, in the assay on IL-1β and in the assay with IL-6 were 92%, 82% and 53%, respectively. In addition, in the assay with Molm-13 cells (compound concentration 6 μM), the cytotoxicity at 6 µM amounted to 50%. Besides, in the assay with IL-2, the fold induction at 10 µM was found to be 1.9.

Take `Cc1cnc(Nc2ccc(OCCCNCC(=O)NCc3scc4c3CN(C3CCC(=O)NC3=O)C4=O)cc2)nc1Nc1cccc(S(=O)(=O)NC(C)(C)C)c1` (stereo not shown) [Compound 59, 2-((3-(4-((4-((3-(N-(tert-Butyl)sulfamoyl)phenyl)amino)-5-methylpyrimidin-2-yl)amino)phenoxy)propyl)amino)-N-((5-(2,6-dioxopiperidin-3-yl)-4-oxo-5,6-dihydro-4H-thieno[3,4-c]pyrrol-1-yl)methyl)acetamide]: the inhibition at 10 µM with TNF-α is 81%; in the assay with IL-1β it was 45%; in the assay on IL-6, 10%. For the same compound, the cytotoxicity at 2.8 µM in the assay on Molm-13 cells (compound concentration 2.8 μM) stood at 50%. Also, the fold induction at 10 µM in the assay on IL-2 was 1.8.

Consider `Cc1sc2c(c1C)C(c1ccc(Cl)cc1)=N[C@@H](CC(=O)NCCCCNCC(=O)NCc1scc3c1CN(C1CCC(=O)NC1=O)C3=O)c1nnc(C)n1-2` (stereo partly drawn) [Compound 60, 2-((S)-4-(4-Chlorophenyl)-2,3,9-trimethyl-6H-thieno[3,2-f][1,2,4]triazolo[4,3-a][1,4]diazepin-6-yl)-N-(4-((2-(((5-(2,6-dioxopiperidin-3-yl)-4-oxo-5,6-dihydro-4H-thieno[3,4-c]pyrrol-1-yl)methyl)amino)-2-oxoethyl)amino)butyl)acetamide], for which the inhibition at 1 µM in the assay on TNF-α (compound concentration 1 μM) was determined as 93%; in the assay on IL-1β (compound concentration 1 μM) it was 91%; in the assay on IL-6 (compound concentration 1 μM) it was 95%. Also, the cytotoxicity at 0.2 µM with Molm-13 cells (compound concentration 0.2 μM) amounted to 50%. For the same compound, in the assay with IL-2 (compound concentration 1 μM), the fold induction at 1 µM stood at 0.2.
